# Reference: patent publication US20100179098A1, “FUROST-5-ENE-3, 22, 26-TRIOL GLYCOSIDE COMPOUND FOR PREVENTING AND TREATMENT CANCER” (priority 2006, published 2010)
# Where two headings read alike, the source gives them in different places.
# Columns and labels:
# [1] = tested on: Lung, A549; assay: alamarBlue cancer cell inhibition, A549; assay type: cell-based; settings: A549, 72 hours
# Procedure: (§1) Each suspension of various cancer cell lines was inoculated in a 96-well cultural plate and incubated at 37° C. under 5% carbon dioxide for 24 hours. Then, 100 μL of medium and 2 μl of different concentrations (100, 10, 1, 0.1 and 0.01 μM) of dichotomin (PK-22-1) were added therein. In addition, the cancer cells treated with a control drug, mitomycin, were incubated and treated in the same manner. After 72 hours of incubation, 20 μl of alamarBlue reagent was added into each well and the cells were incubated for another 6 hours. Cell densities were detected with a fluorescence detector, GENios equipped with a microreader, using an exciting wavelength of 530 nm and an emission wavelength of 590 nm. The IC50 value means the concentration at which the experimental drug reduces the cell numbers by 50% at the end of the experiment. This value represents the inhibition activity of the test drugs.
# [2] = tested on: Colon, HT-29; assay: alamarBlue cancer cell inhibition, HT-29; assay type: cell-based; settings: HT-29, 72 hours
# Procedure: as §1
# [3] = tested on: Liver, Hep 3B; assay: alamarBlue cancer cell inhibition, Hep 3B; assay type: cell-based; settings: 72 hours
# Procedure: as §1
# [4] = tested on: GP7TB cells; assay: Growth inhibition (cell number), GP7TB; assay type: cell-based, rat; settings: for Amount of Cells: GP7TB, mean of triplicate; for IC50: Rattus norvegicus, GP7TB cells, read-out: 50% inhibition concentration (IC50)
# Procedure: Rat liver cancer cell line GP7TB and human liver cancer cell line Huh-7 and HepG2 at 10^4 cells each were seeded in individual wells of a 96-well cultural plate. After overnight incubation, different concentrations of the extracts were added therein for 24 hours. Subsequently, the medium was discarded, and the medium with 20 μl/ml of MTS was added for 1 hour. Since MTS reagent contains 3-(4,5-dimethylhiazol-2-yl)-5-(3-carboxymethoxyphenyl)-2-(4-sulfophenyl)-2H-tetrazolium, which could be metabolized by NADH or NADPH dehydrogenase in living cells to a formazan product, cellular survival rates could be estimated from different readings at 490 nm.
# The experiments were performed in triplicate and the results were performed by average calculation.
# [5] = tested on: GP7TB cells; assay: Ex-vivo anti-tumor experiment: pretreated GP7TB cells grafted in F344 rats; design: species or system rat; settings: GP7TB cells pretreated 12.5 μg/ml 24 hours; 5×10^6 cells S.C.; after three weeks
# Procedure: GP7TB cells (3×10^6 cells each) were incubated in several 10-cm cultural dishes and treated with dichotomin (PK-22-1) or the extract without dichotomin (PK-22-3) at a concentration of 12.5 μg/ml for 24 hours. These cells were collected. GP7TB cells, PK-22-1-treated GP7TB cells, and PK-22-3-treated GP7TB cells (5×10^6 cells each) were separately injected subcutaneously at three different locations on the back of each F344 rat. […] The tumor sizes of rats inoculated with GP7TB cells treated with the extract PK-22-3 without dichotomin were the same as those of rats treated with GP7TB cells (control group).
# [6] = tested on: GP7TB cells; assay: In vivo growth inhibition of rat liver tumor by intratumoral injection
# Procedure: The back of each rat was injected subcutaneously with 3×10^6 cells of GP7TB cells. The tumor grows up to 0.3 cm in diameter after about one week. A single dose of dichotomin (PK-22-1, 2.0 mg/kg) or the control buffer (PBS) was directly injected into the tumor once every day for 8 consecutive days. The tumor size was measured, and the cancer cell growth inhibition effects of the control group and dichotomin treated group were compared.
# [7] = tested on: GP7TB cells; assay: Nuclear DNA fragmentation (agarose gel electrophoresis), GP7TB; assay type: cell-based, rat; settings: 12.5 μg/ml, 48 hours
# Procedure: To understand the GP7TB cell growth inhibition mechanism of the active components and the extracts, GP7TB cells were treated with the extracts and dichotomin at a constant concentration of 12.5 μg/ml for 48 hours. The cellular DNA was extracted and analyzed with agarose gel electrophoresis. […] Therefore, it could be concluded that dichotomin could induce apoptosis of the abovementioned cell lines.
# [8] = tested on: HepG2 cells; assay: Nuclear DNA fragmentation (agarose gel electrophoresis), HepG2; assay type: cell-based, human; settings: HepG2, 12.5 μg/ml, 48 hours
compound,measurement,setting,value
"CO[C@@]12[C@H](COC(N)=O)C3=C(C(=O)C(C)=C(N)C3=O)N1C[C@@H]1N[C@@H]12 [Mitomycin, reference compound]",IC50,[1]; Homo sapiens,160 nM
same,IC50,[2]; Homo sapiens,330 nM
same,IC50,"[3]; Homo sapiens, Hep3B",40 nM
"(25R)-26-O-beta-D-glucopyranosyl-22-hydroxy-5-ene-furostan-3beta, 26-diol-3-O-alpha-L-rhamnopyranosyl-(1→4)-alpha-L-rhamnopyranosyl-(1→4)-[alpha-L-rhamnopyranosyl-(1→2)]-beta-D-glucopyranoside [PK-22-1]",Amount of Cells,[4]; 1 μg/ml,1.30 × 10^5 cells/ml
same,Amount of Cells,[4]; 2 μg/ml,4.60 × 10^4 cells/ml
same,Amount of Cells,[4]; 4 μg/ml,2.00 × 10^4 cells/ml
same,Amount of Cells,[4]; 6 μg/ml,1.10 × 10^4 cells/ml
same,Amount of Cells,[4]; 8 μg/ml,5.00 × 10^4 cells/ml
same,Amount of Cells,[4]; 10 μg/ml,3.00 × 10^3 cells/ml
same,Amount of Cells,[4]; 12 μg/ml,1.60 × 10^3 cells/ml
same,IC50,[1],840 nM
same,IC50,[2],7300 nM
same,IC50,[3],8500 nM
same,Rats that did not form any tumor,[5],six rats of the nine
same,Tumor size relative to tumors from untreated GP7TB cells (control group),[5],one sixth
same,Tumor volume after injection (Day 8),"[6]; 2.0 mg/kg into the tumor once daily for 8 days, volume = 0.52 × length × width × height",(0.692 cm^3)
same,Apoptosis of cancer cells in tumor (pathological section),"[6]; 2.0 mg/kg intratumoral, 8 days",exhibited apoptosis
same,Tumor size relative to the control group,"[6]; 2.0 mg/kg intratumoral, 8 days, vs PBS",only half the size
same,Tumor volume before injection (Day 0),"[6]; baseline, volume = 0.52 × length × width × height",(0.142 cm^3)
same,Growth (folds),"[6]; tumor volume Day 8 vs Day 0, 2.0 mg/kg intratumoral, PBS control 9.26",4.87 folds
same,Nuclear DNA fragmentation,[7],most notable effects
same,Nuclear DNA fragmentation,[8],most notable effects
COc1cccc2c1C(=O)c1c(O)c3c(c(O)c1C2=O)C[C@@](O)(C(=O)CO)C[C@@H]3O[C@H]1C[C@H](N)[C@H](O)[C@H](C)O1 [Adriamycin],Amount of Cells,[4]; 1 μg/ml,7.80 × 10^4 cells/ml
same,Amount of Cells,[4]; 2 μg/ml,2.30 × 10^4 cells/ml
same,Amount of Cells,[4]; 4 μg/ml,2.00 × 10^4 cells/ml
same,Amount of Cells,[4]; 6 μg/ml,3.00 × 10^4 cells/ml
same,Amount of Cells,[4]; 8 μg/ml,2.50 × 10^4 cells/ml
same,Amount of Cells,[4]; 10 μg/ml,2.30 × 10^4 cells/ml
same,Amount of Cells,[4]; 12 μg/ml,1.60 × 10^4 cells/ml
same,IC50,[4]; by mass,1.54 µg/mL
same,IC50,[4]; molar,2660 nM
